We go through two substances from publication PMC11181022, “The molecular architecture of Lactobacillus S-layer: Assembly and attachment to teichoic acids” (Proceedings of the National Academy of Sciences of the …, 2024).

The assay has as its target T1, SlpA_amy_III (SlpA_amy_D3) (Lactobacillus amylovorus, UniProt E4SK47).
T1 construct: gene LA2_00970; His-tagged, 15N-labelled, expressed in E. coli BL21 DE
T1 sequence (E4SK47 322-456): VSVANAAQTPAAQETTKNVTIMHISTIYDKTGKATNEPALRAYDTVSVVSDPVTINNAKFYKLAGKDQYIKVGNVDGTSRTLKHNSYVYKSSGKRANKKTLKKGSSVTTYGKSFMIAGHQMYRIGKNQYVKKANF
The assay can be described thus: 1H-15N HSQC NMR titration, mean Kd of per-residue shift fits. Conditions: 20 mM ADA, 50 mM NaCl, pH 6.5, 25 C, two binding areas TAB1 and TAB2.

With GroP pentamer, where the note is “200 uM protein”, the Kd amounted to 500 µM. With GroP trimer, the Kd (300 uM protein) was determined as 3500 µM.

The term Kd denotes a measure of binding affinity in units of concentration.
